{
  "source": "patent US20090247495A1",
  "about": "“CU[…] AND USES THEREOF” (priority 2007, published 2009)",
  "key": {"[1]": {"assay": "Gross and microscopic examination of organs of treated mice", "format": "in vivo, nude mice", "conditions": "i.p. 1 mg/kg three times a week, six weeks", "experimental": "One million human MDA-MB-231 breast cancer cells/Matrigel (vol 1:1) were inoculated isotopically into the breasts of nude mice. The mice received intraperitoneal injections of 1 mg/ml of cucurbitacin B 3 times a week starting on the day after inoculation of the cells. The longitudinal and the transverse diameter, and the height were measured once a week. The volume was calculated by multiplying these elements, and the relative tumor size was determined by dividing the product by the initial volume. After 6 weeks, the mice were sacrificed to weigh the dissected tumors. At that moment, blood was taken for analysis, where organs and tumors were inspected, dissected, fixed and stained with hematoxylin-eosin and/or Ki-67. Data were expressed as mean±SD. Statistical analysis was performed by student's t test.\nSix weeks after i.p. treatment with either vehicle or cucurbitacin B 1 mg/kg three times a week, mice were euthanized and tumors were observed and weighed. Results represented the mean and SD of 9 treated and 9 control tumors. Statistical analysis was performed by student's t test."}, "[2]": {"system": "Human cancer cell lines from the 59-NCI Cancer Cell Line Panel", "assay": "Apoptosis (Annexin V-FITC / PI) by flow cytometry, 18 selected NCI panel cell lines", "format": "cell-based", "conditions": "48 hours; GI50, ½ GI50 and ¼ GI50", "experimental": "Apoptosis is the important mechanism for cell death in normal cells. In cancer cells, this mechanism fails and cells proliferate without control. Human cancer cell lines from the 59-NCI Cancer Cell Line Panel including leukemia, melanoma and cancers of breast, brain, colon, lung, ovary, prostate and kidney were purchased from the National Institute of Cancer. […] They were treated with cucurbitacin B and cucurbitacin D at three different concentrations to elucidate their ability to induce any changes in cell cycle.\nCancer cell lines were maintained in RPMI 1640 supplemented with 5% Fetal Bovine Serum, 2 mM L-glutamine and 1% Penicillin/Streptomycin at 37° C. with 5% CO2. Cells were inoculated into tissue culture flask at cell concentrations from 50000 to 400,000 cells/ml according to the NCI guideline. The cells were incubated at 37° C. with 5% CO2 for 24 hours. Cucurbitacin B and cucurbitacin D were added to the cells of final concentrations ranging from 6 to 350 nM (GI50, ½ GI50 and ¼ GI50 of particular cell line) for 48 hours at 37° C. with 5% CO2. Cells (3×10^5) were then harvested and stained with 5 μl Annexin V-FITC and 10 μl propidium iodine (Becton Dickinson, CA, USA) for 15 minutes at room temperature. Ten thousands events were collected by the FACScaliber and the percentage of different cell populations were analyzed by the CellQuest™ software (Becton Dickinson)."}, "Panc 02.13": {"system": "Panc 02.13", "assay": "MTT cell cytotoxicity assay, Panc 02.13", "format": "cell-based", "conditions": "Homo sapiens, 48 hours", "experimental": "(§1) Three human pancreatic cancer cell lines (Panc-1, Panc 02.13, Panc 10.05) were purchased from American Type Culture Collection (ATCC, Manassas, Va., USA). Panc 02.13 and Panc 10.05 were grown in RPMI 1640 medium supplemented with 15% FBS, 4.5 g/L glucose, 10 mM HEPES, and 1.0 mM sodium pyruvate and 10 Units/ml human insulin; while PANC-1 was grown in Dulbecco's modified Eagle's medium supplemented with 10% FBS. They were maintained in a humidified 5% CO2 atmosphere at 37° C. and the culture medium was changed once in 2 days.\n(§2) The cytotoxic effect of CuB on these three cancer cell lines were determined using MTT (3-[4,5-dimethylthiazol-2-yl]-2,5-diphenyl tetrazolium bromide) labeled cell cytotoxicity assay. A total of 1×10^4 cells were seeded into a 96-well plate for 24 hours prior to cucurbitacin B (CuB) treatment. They were then treated with different dosages of CuB for 48 hours. After the treatment, 20 μl of MTT (5 mg/ml) was added to each well and incubated for 4 hrs. Then the medium was discarded and 100 μl of dimethyl sulfoxide was added. The absorbance at 570 nm was then measured by FLUOstar OPTIMA equipment (BMG, LABTECH GmbH, Germany). The percentage of inhibition against different dosages of CuB were plotted using the Prism software and the 50% inhibition concentration (IC50) were obtained. […]"}, "[3]": {"system": "HepG2-resistant (HepG2-R)", "assay": "Hollow fiber assay, HepG2-resistant", "format": "in vivo, nude mice", "conditions": "up to 14 days", "experimental": "The hollow fiber assay (HFA) was developed by the NCI as a high-throughput, preliminary in vivo screening assay for the evaluation of anti-cancer agents. Human liver cancer cell lines HepG2 and HepG2-resistant (HepG2-R) were in vitro cultured inside hollow fibers for a short term (48 hours), followed by in vivo implantation at s.c. sites of the nude mice. Mice were treated with negative control (0.5% CMC), positive control (10 mg/kg 5-Fluorouracil) and cucurbitacin B (0.2 mg/kg) for up to 14 days. Then the fibers were excised and analyzed for cell viability by MTT assay. The efficacies of cucurbitacin B against HepG2 and HepG2-R were expressed as the percentage of the results obtained in the negative control group."}, "Panc-1 and SW cells": {"system": "Panc-1 and SW cells", "assay": "Annexin V / PI apoptosis by flow cytometry, pancreatic cells", "format": "cell-based, human", "conditions": "48 h, increasing concentration", "experimental": "Panc-1 and SW cells was incubated with vary doses of cucurbitacin B for 48 h at 37° C. At the end of treatment, cells were washed twice with cold PBS and resuspended at 2×10^6 cells/ml in 1×binding buffer. The cells were then stained with Annexin V and propidium iodide. All analyses were performed by flow cytometry."}, "K562 cells": {"system": "K562 cells", "assay": "Flow cytometry for cell cycle analysis, K562", "format": "cell-based, human", "conditions": "80 nM, 48 hours, serum starved 24 hours", "experimental": "K562 cells were serum starved for 24 hours prior to cucurbitacin B treatment. After 48 hours of treatment, the cells were collected and rinsed twice with phosphate-buffer saline and fixed with 80% ice-cold ethanol for […]. Then, the cells were stained with propidium iodine at 1 mg/ml for 15 minutes at room temperature. The stained cells were analyzed by flow cytometry (FACS Calibur BD Flow Cytometer) • 6.1.6 Western Blot Analysis\nAppropriate numbers of cell density were serum starved for 24 hours prior to treatment with different doses of cucurbitacin B for 2 days. The cell cycle analysis profile of K562 cells after cucurbitacin B treatment were detected using Flow Cytometry analysis after fixed with 80% ice-cold ethanol at 4° C. and then stained with PI for 15 minutes."}, "Panc 10.05": {"system": "Panc 10.05", "assay": "MTT cell cytotoxicity assay, Panc 10.05", "format": "cell-based", "conditions": "Homo sapiens, Panc1005, 48 hours", "experimental": "as §1, §2"}},
  "data": [
    {"compound": "CC(=O)OC(C)(C)/C=C/C(=O)[C@](C)(O)C1[C@H](O)C[C@@]2(C)C3CC=C4C(C[C@H](O)C(=O)C4(C)C)[C@]3(C)C(=O)C[C@]12C", "note": "(some centres unmarked) [cucurbitacin B]", "values": [
      {"measurement": "gross and microscopic examination of the liver, spleen, and peritoneum", "setting": "[1]", "result": "no significant difference"},
      {"measurement": "cell lines in which apoptosis was induced", "setting": "[2]", "result": "9 out of 18"},
      {"measurement": "GI50", "setting": "Panc 02.13", "result": 5.13, "unit": "µM"},
      {"measurement": "Cell growth rate compared with the negative control group", "setting": "[3]; 0.2 mg/kg p.o.", "result": "about 75%"},
      {"measurement": "cell growth in hollow fibers", "setting": "[3]; 0.2 mg/kg, i.p., s.c. and p.o.", "result": "potently inhibited"},
      {"measurement": "apoptotic cells", "setting": "Panc-1 and SW cells", "result": "the percentage of apoptic cells rise"},
      {"measurement": "percentage in the G2/M phase", "setting": "K562 cells", "result": 70, "unit": "%"},
      {"measurement": "GI50", "setting": "Panc 10.05", "result": 5.81, "unit": "µM"}
    ]}
  ]
}
